Experimental data published in PubChem BioAssay (NCI).
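Test compounds were applied to cells in 96-well plates for 48 hours at 5 doses. TGI: total growth inhibition.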

Experiments:
Assay in all cases: growth of human tumour cells (NCI), 48 h
SF-539 CNS = system: SF-539 CNS
HT29 colon = system: HT29 colon
RPMI-8226 leukemia = system: RPMI-8226 leukemia
SF-268 CNS = system: SF-268 CNS
NCI-H460 lung = system: NCI-H460 lung
MDA-MB-231 breast = system: MDA-MB-231 breast
A549 NSCLC = system: A549 NSCLC
SN12C renal = system: SN12C renal
SK-OV-3 ovarian = system: SK-OV-3 ovarian
MDA-MB-435 = system: MDA-MB-435
ACHN renal = system: ACHN renal
OVCAR-4 ovarian = system: OVCAR-4 ovarian
SW-620 colon = system: SW-620 colon
EKVX NSCLC = system: EKVX NSCLC
HCT-116 colon = system: HCT-116 colon
U251 CNS = system: U251 CNS
NCI-H522 lung = system: NCI-H522 lung
SK-MEL-2 melanoma = system: SK-MEL-2 melanoma
MCF7 breast = system: MCF7 breast
SK-MEL-28 melanoma = system: SK-MEL-28 melanoma
M14 melanoma = system: M14 melanoma
PC-3 prostate = system: PC-3 prostate
UO-31 renal = system: UO-31 renal
HL-60(TB) leukemia = system: HL-60(TB) leukemia
786-0 renal = system: 786-0 renal
RXF 393 renal = system: RXF 393 renal
CCRF-CEM leukemia = system: CCRF-CEM leukemia
A498 renal = system: A498 renal
OVCAR-8 ovarian = system: OVCAR-8 ovarian
TK-10 renal = system: TK-10 renal
OVCAR-5 ovarian = system: OVCAR-5 ovarian
KM12 colon = system: KM12 colon
MALME-3M melanoma = system: MALME-3M melanoma
COLO 205 colon = system: COLO 205 colon
SNB-19 CNS = system: SNB-19 CNS
LOX IMVI melanoma = system: LOX IMVI melanoma
DU-145 prostate = system: DU-145 prostate
HCT-15 colon = system: HCT-15 colon
NCI/ADR-RES ovarian = system: NCI/ADR-RES ovarian
SF-295 CNS = system: SF-295 CNS
UACC-62 melanoma = system: UACC-62 melanoma
NCI-H226 lung = system: NCI-H226 lung
MDA-N = system: MDA-N
HCC-2998 colon = system: HCC-2998 colon
MOLT-4 leukemia = system: MOLT-4 leukemia
SR leukemia = system: SR leukemia
BT-549 breast = system: BT-549 breast
HOP-62 NSCLC = system: HOP-62 NSCLC
SK-MEL-5 melanoma = system: SK-MEL-5 melanoma
CAKI-1 renal = system: CAKI-1 renal
IGROV1 ovarian = system: IGROV1 ovarian
HS 578T breast = system: HS 578T breast
NCI-H23 lung = system: NCI-H23 lung
K-562 leukemia = system: K-562 leukemia
HOP-92 NSCLC = system: HOP-92 NSCLC
OVCAR-3 ovarian = system: OVCAR-3 ovarian
T-47D breast = system: T-47D breast
UACC-257 melanoma = system: UACC-257 melanoma
SNB-75 CNS = system: SNB-75 CNS

**Q.** CCOC(=O)c1nc2cc(Cl)ccc2[nH]c1=O was tested. Which TGI (SF-539 CNS) did it give?
**A.** > 100 µM

**Q.** What about the TGI (HT29 colon) of the same compound?
**A.** > 100 µM

**Q.** What about the TGI (RPMI-8226 leukemia) of the same compound?
**A.** > 100 µM

**Q.** And the TGI (SF-268 CNS)?
**A.** > 100 µM

**Q.** What about the TGI (NCI-H460 lung) of the same compound?
**A.** > 100 µM

**Q.** What about the TGI (MDA-MB-231 breast) of the same compound?
**A.** > 100 µM

**Q.** What about the TGI (A549 NSCLC) of the same compound?
**A.** > 100 µM

**Q.** And the TGI (SN12C renal)?
**A.** > 100 µM

**Q.** And the TGI (SK-OV-3 ovarian)?
**A.** > 100 µM

**Q.** And the TGI (MDA-MB-435)?
**A.** > 100 µM

**Q.** What about the TGI (ACHN renal) of the same compound?
**A.** > 100 µM

**Q.** And the TGI (OVCAR-4 ovarian)?
**A.** > 100 µM

**Q.** And the TGI (SW-620 colon)?
**A.** > 100 µM

**Q.** And the TGI (EKVX NSCLC)?
**A.** > 100 µM

**Q.** What about the TGI (HCT-116 colon) of the same compound?
**A.** > 100 µM

**Q.** What about the TGI (U251 CNS) of the same compound?
**A.** > 100 µM

**Q.** What about the TGI (NCI-H522 lung) of the same compound?
**A.** > 100 µM

**Q.** And the TGI (SK-MEL-2 melanoma)?
**A.** > 100 µM

**Q.** What about the TGI (MCF7 breast) of the same compound?
**A.** > 100 µM

**Q.** And the TGI (SK-MEL-28 melanoma)?
**A.** > 100 µM

**Q.** And the TGI (M14 melanoma)?
**A.** > 100 µM

**Q.** What about the TGI (PC-3 prostate) of the same compound?
**A.** > 100 µM

**Q.** And the TGI (UO-31 renal)?
**A.** > 100 µM

**Q.** And the TGI (HL-60(TB) leukemia)?
**A.** > 100 µM

**Q.** What about the TGI (786-0 renal) of the same compound?
**A.** > 100 µM

**Q.** What about the TGI (RXF 393 renal) of the same compound?
**A.** > 100 µM

**Q.** And the TGI (CCRF-CEM leukemia)?
**A.** > 100 µM

**Q.** What about the TGI (A498 renal) of the same compound?
**A.** > 100 µM

**Q.** What about the TGI (OVCAR-8 ovarian) of the same compound?
**A.** > 100 µM

**Q.** What about the TGI (TK-10 renal) of the same compound?
**A.** > 100 µM

**Q.** And the TGI (OVCAR-5 ovarian)?
**A.** > 100 µM

**Q.** And the TGI (KM12 colon)?
**A.** > 100 µM

**Q.** And the TGI (MALME-3M melanoma)?
**A.** > 100 µM

**Q.** What about the TGI (COLO 205 colon) of the same compound?
**A.** > 100 µM

**Q.** And the TGI (SNB-19 CNS)?
**A.** > 100 µM

**Q.** What about the TGI (LOX IMVI melanoma) of the same compound?
**A.** > 100 µM

**Q.** And the TGI (DU-145 prostate)?
**A.** > 100 µM

**Q.** What about the TGI (HCT-15 colon) of the same compound?
**A.** > 100 µM

**Q.** What about the TGI (NCI/ADR-RES ovarian) of the same compound?
**A.** > 100 µM

**Q.** And the TGI (SF-295 CNS)?
**A.** > 100 µM

**Q.** What about the TGI (UACC-62 melanoma) of the same compound?
**A.** > 100 µM

**Q.** And the TGI (NCI-H226 lung)?
**A.** > 100 µM

**Q.** What about the TGI (MDA-N) of the same compound?
**A.** > 100 µM

**Q.** And the TGI (HCC-2998 colon)?
**A.** > 100 µM

**Q.** What about the TGI (MOLT-4 leukemia) of the same compound?
**A.** > 100 µM

**Q.** And the TGI (SR leukemia)?
**A.** > 100 µM

**Q.** What about the TGI (BT-549 breast) of the same compound?
**A.** > 100 µM

**Q.** And the TGI (HOP-62 NSCLC)?
**A.** > 100 µM

**Q.** And the TGI (SK-MEL-5 melanoma)?
**A.** > 100 µM

**Q.** And the TGI (CAKI-1 renal)?
**A.** > 100 µM

**Q.** And the TGI (IGROV1 ovarian)?
**A.** > 100 µM

**Q.** What about the TGI (HS 578T breast) of the same compound?
**A.** > 100 µM

**Q.** What about the TGI (NCI-H23 lung) of the same compound?
**A.** > 100 µM

**Q.** What about the TGI (K-562 leukemia) of the same compound?
**A.** > 100 µM

**Q.** And the TGI (HOP-92 NSCLC)?
**A.** > 100 µM

**Q.** And the TGI (OVCAR-3 ovarian)?
**A.** > 100 µM

**Q.** What about the TGI (T-47D breast) of the same compound?
**A.** > 100 µM

**Q.** What about the TGI (UACC-257 melanoma) of the same compound?
**A.** > 100 µM

**Q.** Which TGI (SF-539 CNS) does the source give for N#CC1=C(N)N(/N=C/c2ccco2)C(c2ccco2)C1(C#N)C#N (stereo not given) here?
**A.** 48.9 µM

**Q.** And the TGI (HT29 colon)?
**A.** 32.2 µM

**Q.** What about the TGI (RPMI-8226 leukemia) of the same compound?
**A.** 44 µM

**Q.** What about the TGI (SF-268 CNS) of the same compound?
**A.** 79.7 µM

**Q.** And the TGI (MDA-MB-231 breast)?
**A.** 38.6 µM

**Q.** What about the TGI (A549 NSCLC) of the same compound?
**A.** 56.2 µM

**Q.** And the TGI (SN12C renal)?
**A.** 70 µM

**Q.** And the TGI (SK-OV-3 ovarian)?
**A.** 83.8 µM

**Q.** And the TGI (MDA-MB-435)?
**A.** 41.4 µM

**Q.** And the TGI (ACHN renal)?
**A.** 30.2 µM

**Q.** What about the TGI (OVCAR-4 ovarian) of the same compound?
**A.** 32.5 µM

**Q.** What about the TGI (SW-620 colon) of the same compound?
**A.** 24.5 µM

**Q.** And the TGI (EKVX NSCLC)?
**A.** 47.3 µM

**Q.** And the TGI (HCT-116 colon)?
**A.** 25.3 µM

**Q.** And the TGI (U251 CNS)?
**A.** 36.1 µM

**Q.** And the TGI (SNB-75 CNS)?
**A.** 36.6 µM

**Q.** What about the TGI (NCI-H522 lung) of the same compound?
**A.** 31.1 µM

**Q.** What about the TGI (SK-MEL-2 melanoma) of the same compound?
**A.** 47.4 µM

**Q.** And the TGI (MCF7 breast)?
**A.** 43.2 µM

**Q.** And the TGI (M14 melanoma)?
**A.** 43.6 µM

**Q.** And the TGI (PC-3 prostate)?
**A.** 48.5 µM

**Q.** What about the TGI (UO-31 renal) of the same compound?
**A.** 34.4 µM

**Q.** What about the TGI (HL-60(TB) leukemia) of the same compound?
**A.** 7.69 µM

**Q.** What about the TGI (786-0 renal) of the same compound?
**A.** 33.1 µM

**Q.** What about the TGI (RXF 393 renal) of the same compound?
**A.** 25.8 µM

**Q.** And the TGI (CCRF-CEM leukemia)?
**A.** 19.2 µM

**Q.** What about the TGI (A498 renal) of the same compound?
**A.** 29.9 µM

**Q.** What about the TGI (OVCAR-8 ovarian) of the same compound?
**A.** 41.6 µM

**Q.** What about the TGI (TK-10 renal) of the same compound?
**A.** 32.4 µM

**Q.** And the TGI (OVCAR-5 ovarian)?
**A.** 41.7 µM

**Q.** What about the TGI (KM12 colon) of the same compound?
**A.** 28.7 µM

**Q.** What about the TGI (MALME-3M melanoma) of the same compound?
**A.** 43.4 µM

**Q.** What about the TGI (COLO 205 colon) of the same compound?
**A.** 28.9 µM

**Q.** And the TGI (SNB-19 CNS)?
**A.** 39.2 µM

**Q.** What about the TGI (LOX IMVI melanoma) of the same compound?
**A.** 28.2 µM

**Q.** And the TGI (DU-145 prostate)?
**A.** 32.1 µM

**Q.** And the TGI (HCT-15 colon)?
**A.** 38.8 µM

**Q.** And the TGI (NCI/ADR-RES ovarian)?
**A.** 61.2 µM

**Q.** And the TGI (SF-295 CNS)?
**A.** 79 µM

**Q.** And the TGI (UACC-62 melanoma)?
**A.** 42.4 µM

**Q.** What about the TGI (NCI-H226 lung) of the same compound?
**A.** 37.7 µM

**Q.** And the TGI (MDA-N)?
**A.** 37.4 µM

**Q.** What about the TGI (HCC-2998 colon) of the same compound?
**A.** 34.7 µM

**Q.** What about the TGI (MOLT-4 leukemia) of the same compound?
**A.** 30.3 µM

**Q.** What about the TGI (SR leukemia) of the same compound?
**A.** 39.3 µM

**Q.** What about the TGI (BT-549 breast) of the same compound?
**A.** 34.9 µM

**Q.** What about the TGI (HOP-62 NSCLC) of the same compound?
**A.** 51.1 µM

**Q.** What about the TGI (SK-MEL-5 melanoma) of the same compound?
**A.** 29.3 µM

**Q.** What about the TGI (CAKI-1 renal) of the same compound?
**A.** 37.9 µM

**Q.** What about the TGI (IGROV1 ovarian) of the same compound?
**A.** 30 µM

**Q.** And the TGI (HS 578T breast)?
**A.** 97.2 µM

**Q.** And the TGI (NCI-H23 lung)?
**A.** 35.8 µM

**Q.** What about the TGI (K-562 leukemia) of the same compound?
**A.** 85.1 µM

**Q.** What about the TGI (HOP-92 NSCLC) of the same compound?
**A.** 33.5 µM

**Q.** And the TGI (OVCAR-3 ovarian)?
**A.** 39 µM

**Q.** And the TGI (T-47D breast)?
**A.** 33.2 µM

**Q.** And the TGI (UACC-257 melanoma)?
**A.** 33.2 µM
